Laboratory results from the NIST ThermoML archive (doi:10.1021/je060353z).
Values joined by “and” are separate entries in the source; they are usually repeats but may differ in a detail not shown here. Equal entries are not always repeated.

Tests used:
[1] = 101 kPa, Liquid
[2] = xn = mol fraction of the nth substance listed; details: 101 kPa, Liquid

CCCCCCO [hexan-1-ol]
[1]
Details | mass density [kg/m3] | speed of sound [m/s] | viscosity [mPa·s]
298.15 K | 815.23 | 1304.7 | 4.594
303.15 K | 812.118 | 1287.9 | 3.887
308.15 K | 808.482 | 1271.1 | 3.359
313.15 K | 804.811 | 1254.5 | 2.914

Clc1ccccc1 [chlorobenzene] + CCCCCCCO
[2]
Details | mass density [kg/m3] | speed of sound [m/s] | viscosity [mPa·s]
298.15 K, x1 = 0.1306 | 846.348 | 1316.7 | 4.469
298.15 K, x1 = 0.2566 | 874.819 | 1305.5 | 3.335
298.15 K, x1 = 0.3866 | 906.448 | 1293.8 | 2.453
298.15 K, x1 = 0.4947 | 934.739 | 1284 | 1.911
298.15 K, x1 = 0.5878 | 960.727 | 1276 | 1.557
298.15 K, x1 = 0.6827 | 988.992 | 1269.1 | 1.273
298.15 K, x1 = 0.7682 | 1016.23 | 1264.6 | 1.073
298.15 K, x1 = 0.8521 | 1044.88 | 1262.7 | 0.918
298.15 K, x1 = 0.9255 | 1071.67 | 1263.8 | 0.817
298.15 K, x1 = 1 | 1100.97 | 1268 | 0.757
303.15 K, x1 = 0.1306 | 842.689 | 1300 | 3.832
303.15 K, x1 = 0.2566 | 870.964 | 1289 | 2.896
303.15 K, x1 = 0.3866 | 902.362 | 1277.6 | 2.164
303.15 K, x1 = 0.4947 | 930.425 | 1268.2 | 1.709
303.15 K, x1 = 0.5878 | 956.224 | 1260.7 | 1.406
303.15 K, x1 = 0.6827 | 984.268 | 1253.8 | 1.16
303.15 K, x1 = 0.7682 | 1011.3 | 1248.7 | 0.984
303.15 K, x1 = 0.8521 | 1039.69 | 1245.4 | 0.85
303.15 K, x1 = 0.9255 | 1066.23 | 1245.5 | 0.764
303.15 K, x1 = 1 | 1095.1 | 1249.4 | 0.714
308.15 K, x1 = 0.1306 | 838.9 | 1283.3 | 3.311
308.15 K, x1 = 0.2566 | 866.926 | 1272.1 | 2.532
308.15 K, x1 = 0.3866 | 898.052 | 1260.4 | 1.922
308.15 K, x1 = 0.4947 | 925.892 | 1250.2 | 1.543
308.15 K, x1 = 0.5878 | 951.47 | 1242 | 1.283
308.15 K, x1 = 0.6827 | 979.252 | 1235 | 1.059
308.15 K, x1 = 0.7682 | 1006.02 | 1230.1 | 0.915
308.15 K, x1 = 0.8521 | 1034.12 | 1227.6 | 0.816
308.15 K, x1 = 0.9255 | 1060.42 | 1228 | 0.733
308.15 K, x1 = 1 | 1089.08 | 1230.9 | 0.677
313.15 K, x1 = 0.1306 | 835.146 | 1266.5 | 2.872
313.15 K, x1 = 0.2566 | 862.967 | 1255.6 | 2.219
313.15 K, x1 = 0.3866 | 893.905 | 1243.8 | 1.705
313.15 K, x1 = 0.4947 | 921.55 | 1233.6 | 1.378
313.15 K, x1 = 0.5878 | 946.95 | 1225.3 | 1.135
313.15 K, x1 = 0.6827 | 974.575 | 1217.9 | 0.953
313.15 K, x1 = 0.7682 | 1001.13 | 1212.9 | 0.822
313.15 K, x1 = 0.8521 | 1029.02 | 1209.9 | 0.723
313.15 K, x1 = 0.9255 | 1055.08 | 1209.7 | 0.662
313.15 K, x1 = 1 | 1083.66 | 1212.6 | 0.617

CCCCCCO [hexan-1-ol] + Clc1ccccc1
[2], x2 = 0
Details | mass density [kg/m3] | speed of sound [m/s] | viscosity [mPa·s]
298.15 K | 815.23 | 1304.7 | 4.594
303.15 K | 812.118 | 1287.9 | 3.887
308.15 K | 808.482 | 1271.1 | 3.359
313.15 K | 804.811 | 1254.5 | 2.914

CCCCCCCCCO [nonan-1-ol] + Clc1ccccc1
[2]
Details | mass density [kg/m3] | speed of sound [m/s] | viscosity [mPa·s]
298.15 K, x2 = 0 | 824.478 | 1365.5 | 9.715
298.15 K, x2 = 0.1529 | 850.648 | 1350.5 | 6.576
298.15 K, x2 = 0.3008 | 879.504 | 1333.3 | 4.488
298.15 K, x2 = 0.4379 | 910.112 | 1316.2 | 3.135
298.15 K, x2 = 0.5505 | 938.617 | 1302.2 | 2.329
298.15 K, x2 = 0.6413 | 964.273 | 1291.1 | 1.828
298.15 K, x2 = 0.7273 | 991.186 | 1281.2 | 1.455
298.15 K, x2 = 0.8031 | 1017.42 | 1274 | 1.192
298.15 K, x2 = 0.8744 | 1044.71 | 1269 | 0.999
298.15 K, x2 = 0.937 | 1071.14 | 1267.1 | 0.864
303.15 K, x2 = 0 | 821.044 | 1353.6 | 7.927
303.15 K, x2 = 0.1529 | 846.995 | 1332.6 | 5.56
303.15 K, x2 = 0.3008 | 875.625 | 1315.8 | 3.876
303.15 K, x2 = 0.4379 | 906.014 | 1299.5 | 2.752
303.15 K, x2 = 0.5505 | 934.309 | 1286 | 2.07
303.15 K, x2 = 0.6413 | 959.757 | 1275.1 | 1.646
303.15 K, x2 = 0.7273 | 986.433 | 1265.4 | 1.325
303.15 K, x2 = 0.8031 | 1012.44 | 1257.7 | 1.097
303.15 K, x2 = 0.8744 | 1039.48 | 1252 | 0.924
303.15 K, x2 = 0.937 | 1065.72 | 1249.1 | 0.802
308.15 K, x2 = 0 | 817.582 | 1331.8 | 6.664
308.15 K, x2 = 0.1529 | 843.265 | 1315.5 | 4.745
308.15 K, x2 = 0.3008 | 871.65 | 1298.5 | 3.365
308.15 K, x2 = 0.4379 | 901.759 | 1281.7 | 2.433
308.15 K, x2 = 0.5505 | 929.764 | 1267.7 | 1.858
308.15 K, x2 = 0.6413 | 954.969 | 1256.3 | 1.493
308.15 K, x2 = 0.7273 | 981.393 | 1246.3 | 1.205
308.15 K, x2 = 0.8031 | 1007.14 | 1238.5 | 1.014
308.15 K, x2 = 0.8744 | 1033.95 | 1233 | 0.869
308.15 K, x2 = 0.937 | 1059.96 | 1231.5 | 0.764
313.15 K, x2 = 0 | 814.098 | 1315 | 5.645
313.15 K, x2 = 0.1529 | 839.584 | 1299.4 | 4.074
313.15 K, x2 = 0.3008 | 867.761 | 1282 | 2.935
313.15 K, x2 = 0.4379 | 897.663 | 1264.9 | 2.152
313.15 K, x2 = 0.5505 | 925.493 | 1251 | 1.658
313.15 K, x2 = 0.6413 | 950.508 | 1239.8 | 1.346
313.15 K, x2 = 0.7273 | 976.738 | 1229.8 | 1.094
313.15 K, x2 = 0.8031 | 1002.28 | 1221.8 | 0.919
313.15 K, x2 = 0.8744 | 1028.88 | 1215.6 | 0.775
313.15 K, x2 = 0.937 | 1054.7 | 1213.3 | 0.676

CCCCCCCCCO [nonan-1-ol]
[1]
Details | mass density [kg/m3] | speed of sound [m/s] | viscosity [mPa·s]
298.15 K | 824.478 | 1365.5 | 9.715
303.15 K | 821.044 | 1353.6 | 7.927
308.15 K | 817.582 | 1331.8 | 6.664
313.15 K | 814.098 | 1315 | 5.645

Clc1ccccc1 [chlorobenzene]
[1]
Details | mass density | speed of sound [m/s] | viscosity [mPa·s]
298.15 K | 1100.97 kg/m3 and 1100.67 kg/m3 | 1268 | 0.757
303.15 K | 1095.1 kg/m3 | 1249.4 | 0.714
308.15 K | 1089.08 kg/m3 | 1230.9 | 0.677
313.15 K | 1083.66 kg/m3 | 1212.6 | 0.617

CCCCCCCO [heptan-1-ol] + Clc1ccccc1
[2], x2 = 0
Details | mass density [kg/m3] | speed of sound [m/s] | viscosity [mPa·s]
298.15 K | 818.732 | 1327.3 | 5.944
303.15 K | 815.287 | 1313.6 | 5.069
308.15 K | 811.737 | 1293.9 | 4.333
313.15 K | 808.162 | 1277.2 | 3.726

CCCCCCCCO [octan-1-ol] + Clc1ccccc1
[2], x2 = 0
Details | mass density [kg/m3] | speed of sound [m/s] | viscosity [mPa·s]
298.15 K | 821.826 | 1347.8 | 7.661
303.15 K | 818.23 | 1338 | 6.402
308.15 K | 814.737 | 1314.3 | 5.425
313.15 K | 810.098 | 1297.6 | 4.628

CCCCCCCCCCO [decan-1-ol]
[1]
Details | mass density [kg/m3] | speed of sound [m/s] | viscosity [mPa·s]
298.15 K | 826.762 | 1380 | 11.83
303.15 K | 822.853 | 1365 | 9.754
308.15 K | 819.427 | 1346.1 | 8.135
313.15 K | 815.983 | 1329.3 | 6.842

CCCCCCCCCCO [decan-1-ol] + Clc1ccccc1
[2], x2 = 0
Details | mass density [kg/m3] | speed of sound [m/s] | viscosity [mPa·s]
298.15 K | 826.762 | 1380 | 11.83
303.15 K | 822.853 | 1365 | 9.754
308.15 K | 819.427 | 1346.1 | 8.135
313.15 K | 815.983 | 1329.3 | 6.842

CCCCCCCO [heptan-1-ol]
[1]
Details | mass density [kg/m3] | speed of sound [m/s] | viscosity [mPa·s]
298.15 K | 818.732 | 1327.3 | 5.944
303.15 K | 815.287 | 1313.6 | 5.069
308.15 K | 811.737 | 1293.9 | 4.333
313.15 K | 808.162 | 1277.2 | 3.726
